This note sets out measurements from BindingDB's records for doi:10.1021/jm960597m (Division of Warner Lambert, 1997).

The assay in a line: Inhibition of [3H]thymidine uptake by Dopamine receptor D2.

The term EC50 denotes the concentration needed to bring the measured effect to its halfway point. High values mean a need for much substance, low ones an effect from little substance. As to `c1ccc(N2CCN(CC[C@H]3CC[C@H](c4c[nH]c5ccccc54)CC3)CC2)nc1` [3-{4-[2-(4-Pyridin-2-yl-piperazin-1-yl)-ethyl]-cyclohexyl}-1H-indole], the EC50 turned out to be 2.8 nM.
